Results on five compounds are retold here after US20080176898A1, “Phenyl Acetamides” (Bayer HealthCare AG, priority 2004, published 2008).

One assay concerns the target T1, human CysLT1 receptor (Homo sapiens, UniProt Q9Y271).
T1 construct: expressed in transfected cells; host or cells: CHO K1 cells constitutively expressing aequorin
T1 sequence (Q9Y271 1-337): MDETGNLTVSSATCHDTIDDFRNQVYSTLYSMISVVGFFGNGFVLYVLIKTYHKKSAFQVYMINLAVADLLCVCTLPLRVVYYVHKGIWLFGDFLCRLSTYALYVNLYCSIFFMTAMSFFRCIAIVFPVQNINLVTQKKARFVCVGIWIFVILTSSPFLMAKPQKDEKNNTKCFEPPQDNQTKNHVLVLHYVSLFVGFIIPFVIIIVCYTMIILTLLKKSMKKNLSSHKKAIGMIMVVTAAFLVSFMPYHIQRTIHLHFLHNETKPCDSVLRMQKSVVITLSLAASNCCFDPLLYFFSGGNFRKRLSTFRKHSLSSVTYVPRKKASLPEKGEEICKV
The experiment in a line: Cellular in vitro test to determine the CysLT1 activity (aequorin luminescence, CHO K1 cells). Type of assay: cell-based. Conditions: recombinant CHO K1 cells with aequorin and human CysLT1 receptor; antagonism of LTD4 (3×10^−9 M) induced calcium release; 15 minutes preincubation. The text has this: 2. Cellular In Vitro Test to Determine the CysLT1 Activity
A recombinant cell line is used to identify antagonists of the human cysteinyl-leukotriene 1 receptor (CysLT1R) and to quantify the activity of the substances described herein. The cell is originally derived from a hamster ovary epithelial cell (Chinese Hamster Ovary, CHO K1, ATCC: American Type Culture Collection, Manassas, Va. 20108, USA). The test cell line constitutively expresses the calcium-sensitive photoprotein aequorin which, after reconstitution with the cofactor coelenterazine, emits light when the cytoplasmic calcium concentration is increased (Rizzuto R, Simpson A W, Brini M, Pozzan T.; Nature 358 (1992) 325-327). The cell is additionally stably transfected with the human CysLT1 receptor (Lynch et al., Nature 399 (1999) 789-793). The resulting CysLT1R test cell responds to stimulation of the recombinant CysLT1 receptor (agonist: leukotriene D4 (LTD4)) with an intracellular release of calcium ions, which can be quantified through the resulting aequorin luminescence with a suitable luminometer (Milligan G, Marshall F, Rees S, Trends in Pharmacological Sciences 17 (1996) 235-237). Preincubation with antagonists of the CysLT1 receptor reduces the calcium release induced by the agonist LTD4 and thus the measured amount of light.
(§1) Test procedure: The cells are plated out two days before the test in culture medium (DMEM/F12 with Glutamax, Gibco Cat. #61965-026; 10% FCS, Gibco Cat. #10270-106; 1.4 mM sodium pyruvate, Gibco Cat. #11360-039; 1.8 mM sodium bicarbonate, Gibco Cat. #25080-060; 10 mM HEPES, Gibco Cat. #15290-026; now belongs to Invitrogen GmbH, 76131 Karlsruhe) in 384- (or 1536-)well microtiter plates and kept in a cell incubator (96% humidity, 5% v/v CO2, 37° C.). On the day of the test, the culture medium is replaced by Tyrode solution (in mM: 140 NaCl, 5 KCl, 1 MgCl2, 2 CaCl2, 20 glucose, 20 HEPES) which additionally contains the cofactor coelenterazine (50 μM), and the microtiter plate is then incubated for a further 3-4 hours. 15 minutes after the test substances have been transferred into the wells of the microtiter plate, the resulting light signal is measured after addition of the LID4 (3×10^−9 M) in the luminometer.

The target of another assay is T2, human CysLT2 receptor (Homo sapiens, UniProt Q9NS75).
T2 construct: expressed in transfected cells; host or cells: CHO K1 cells constitutively expressing aequorin
T2 sequence (Q9NS75 1-346): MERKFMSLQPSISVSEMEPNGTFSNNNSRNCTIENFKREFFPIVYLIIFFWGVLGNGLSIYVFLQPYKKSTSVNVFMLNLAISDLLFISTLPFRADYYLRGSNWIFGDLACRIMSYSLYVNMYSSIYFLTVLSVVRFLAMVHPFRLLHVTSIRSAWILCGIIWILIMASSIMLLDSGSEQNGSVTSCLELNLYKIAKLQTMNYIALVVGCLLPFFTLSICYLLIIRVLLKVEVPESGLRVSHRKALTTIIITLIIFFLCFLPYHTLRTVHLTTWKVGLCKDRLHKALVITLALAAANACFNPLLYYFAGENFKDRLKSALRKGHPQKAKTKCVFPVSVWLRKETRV
The experiment in a line: Cellular in vitro test to determine the CysLT2 activity (aequorin luminescence, CHO K1 cells). In kind it is cell-based. As to conditions: recombinant CHO K1 cells with aequorin and human CysLT2 receptor; antagonism of LTD4 (3×10^−8 M) induced calcium release; 15 minutes preincubation.
From the text: 1. Cellular In Vitro Test to Determine the CysLT2 Activity
A recombinant cell line is used to identify antagonists of the human cysteinyl-leukotriene 2 receptor (CysLT2R) and to quantify the activity of the substances described herein. The cell is originally derived from a hamster ovary epithelial cell (Chinese Hamster Ovary, CHO K1, ATCC: American Type Culture Collection, Manassas, Va. 20108, USA). The test cell line constitutively expresses the calcium-sensitive photoprotein aequorin which, after reconstitution with the cofactor coelenterazine, emits light when the cytoplasmic calcium concentration is increased (Rizzuto R, Simpson A W, Brini M, Pozzan T.; Nature 358 (1992) 325-327). The cell is additionally stably transfected with the human CysLT2 receptor (Heise et.al., JBC 275 (2000) 30531-30536). The resulting CysLT2R test cell responds to stimulation of the recombinant CysLT2 receptor (agonists: leukotriene D4 (LTD4) and leukotriene C4 (LTC4)) with an intracellular release of calcium ions, which can be quantified through the resulting aequorin luminescence with a suitable luminometer (Milligan G, Marshall F, Rees S, Trends in Pharmacological Sciences 17 (1996) 235-237). Preincubation with antagonists of the CysLT2 receptor reduces the calcium release induced by the agonists LTD4 and LTC4 and thus the measured amount of light.
as §1, with “384-(or” for “384- (or”, “[…]” for “3-4”, “LTD4 (3×10^−8” for “LID4 (3×10^−9”

SMILES strings stand for the structures. A value given as a limit tells only on which side of the number the result lay.

In general, IC50 refers to the concentration that gives 50% inhibition. For the compound `O=C(O)CCCNC(=O)Cc1cc(C(=O)O)ccc1OCCCc1ccc(OCCCCOc2ccccc2)cc1` [Example 13, 3-{2-[(3-Carboxypropyl)amino]-2-oxoethyl}-4-{3-[4-(4-phenoxybutoxy)phenyl]propoxy}benzoic acid], the IC50 at human CysLT1 receptor is more than 10000 nM; at human CysLT2 receptor it was 140 nM.

Turning to `O=C(O)c1ccc(OCCCc2ccc(OCCCCOC3CCCCC3)cc2)c(CC(=O)N2CCCC(C(=O)O)C2)c1` (stereo not shown) [Example 25, 1-{[5-Carboxy-2-(3-{4-[4-(cyclohexyloxy)butoxy]phenyl}propoxy)phenyl]acetyl}piperidine-3-carboxylic acid], the IC50 at human CysLT1 receptor is more than 10000 nM; on human CysLT2 receptor, 45 nM.

On to `O=C(O)CCCNC(=O)Cc1cc(C(=O)O)ccc1OCCCc1ccc(OCCCC2CCCCC2)cc1` [Example 31, 3-{2-[(3-Carboxypropyl)amino]-2-oxoethyl}-4-{3-[4-(3-cyclohexylpropoxy)phenyl]propoxy}-benzoic acid], for which the values for the IC50 on human CysLT1 receptor and on human CysLT2 receptor were more than 10000 nM and 45 nM, respectively.

With `O=C(O)c1ccc(OCCCc2ccc(OCCCC3CCCCC3)cc2)c(CC(=O)N2CCC(C(=O)O)CC2)c1` [Example 33, 1-[(5-Carboxy-2-{3-[4-(3-cyclohexylpropoxy)phenyl]propoxy}phenyl)acetyl]piperidine-4-carboxylic acid], the IC50 on human CysLT1 receptor was more than 3000 nM; on human CysLT2 receptor it was 70 nM.

Take `O=C(O)CNC(=O)Cc1cc(C(=O)O)ccc1OCCCc1ccc(OCCCC2CCCCC2)cc1` [Example 45, 3-{2-[(Carboxymethyl)amino]-2-oxoethyl}-4-{3-[4-(3-cyclohexylpropoxy)phenyl]propoxy}-benzoic acid]: the IC50 at human CysLT1 receptor was more than 3000 nM; at human CysLT2 receptor, 75 nM.
